# Values of other authors as cited in patent US20210363253A1, “USE OF COMBINED TREATMENT OF PD-1 ANTIBODY AND APATINIB FOR TREATING TRIPLE NEGATIVE BREAST CANCER” (JIANGSU HENGRUI MEDICINE CO., LTD., priority 2017, published 2021).
# Conditions: with oxaliplatin, 5-Fu, docetaxel, doxorubicin; preclinical animal experiments
smiles,measurement,value
N#CC1(c2ccc(NC(=O)c3cccnc3NCc3ccncc3)cc2)CCCC1 [Apatinib],efficacy of cytotoxic drugs in combination with Apatinib,significantly increase their efficacy
